Assay results from the supplement of paper PMC8882468.

Experiments:
Experiment in all cases: CTG-3D luminescence at 96 h relative to day-0 seeding control (ratio to day 0); higher = more growth / less cytotoxicity; PDxO 3D drug screen (set 2), 96 h, CTG-3D normalised to day-0 seeding control.
HCI-008 = system: HCI-008 (organoid from a HER2-enriched breast cancer xenograft)
HCI-017.E2 = system: HCI-017.E2 (organoid from an ER-positive breast cancer xenograft)
HCI-023 = system: HCI-023 (organoid from a triple-negative breast cancer xenograft)
HCI-024 = system: HCI-024 (organoid from a breast cancer xenograft)
HCI-025 = system: HCI-025 (organoid from a breast cancer xenograft)

CO[C@H]1C[C@@H]2CC[C@@H](C)[C@@](O)(O2)C(=O)C(=O)N2CCCC[C@H]2C(=O)O[C@H]([C@H](C)C[C@@H]2CC[C@@H](O)[C@H](OC)C2)CC(=O)[C@H](C)/C=C(\C)[C@@H](O)[C@@H](OC)C(=O)[C@H](C)C[C@H](C)/C=C/C=C/C=C/1C [rapamycin]
CTG-3D luminescence at 96 h
Conditions | 12.5 pM | 0.00025 µM | 0.005 µM | 0.1 µM | 1 µM | 10 µM | 100 µM | 625 fM
HCI-008, days in culture: 325 | 1.02 | 2.07 | 1.15 | 1.85 | 1.96 | 1.63 | 0.0243 | 1.04
HCI-008, days in culture: 340 | 0.377 | 2.04 | 1.44 | 0.883 | 1.17 | – | 0.0122 | 0.721
HCI-008, days in culture: 354 | 1.17 | 0.924 | 1.28 | 0.845 | 0.613 | 1.04 | 0.0113 | 0.658
HCI-008, days in culture: 382 | 1.67 | 1.28 | 0.869 | 1.12 | 0.658 | 1.06 | 0.0068 | 1.24
HCI-017.E2, days in culture: 85 | 2.2 | 1.67 | 1.47 | 1.51 | 1.34 | 1.31 | 0.0123 | 2.57
HCI-023, days in culture: 223 | 1.62 | 1.63 | 1.09 | 1.99 | 0.95 | 1.49 | 0.0136 | 2.02
HCI-023, days in culture: 238 | 1.36 | 1.16 | 0.919 | 1.42 | 1.46 | 1.5 | 0.0105 | 1.26
HCI-023, days in culture: 252 | 1.76 | 1.4 | 1.31 | 1.72 | 1.32 | 1.8 | 0.00661 | 1.58
HCI-024, days in culture: 202 | 1.07 | 1.14 | 0.789 | 1.11 | 0.752 | 1.36 | 0.00983 | 1.53
HCI-024, days in culture: 231 | 1.39 | 1.11 | 1.27 | 0.84 | 0.989 | 0.927 | 0.00464 | 1.06
HCI-024, days in culture: 254 | 1.73 | 0.635 | 1.21 | 0.879 | 0.958 | 1.05 | 0.00976 | 3.42
HCI-025, days in culture: 175 | 1.08 | 1.22 | 1.44 | 1.39 | 1.87 | 1.67 | 0.0257 | 0.977
HCI-025, days in culture: 189 | 1.35 | 1.19 | 1.11 | 0.862 | 0.888 | 0.979 | 0.0056 | 1.27
HCI-025, days in culture: 212 | 2.1 | 0.842 | 1.53 | 1.27 | 0.387 | 1.15 | 0.0154 | 1.5
HCI-025, days in culture: 224 | 1.83 | 1.19 | 0.969 | 0.734 | 1.53 | 1.31 | 0.00743 | 1.36

HCI-017.E2
Conditions | CTG-3D luminescence at 96 h
12.5 pM | 1.41
0.00025 µM | 1.88
0.005 µM | 1.61
0.1 µM | 1.58
1 µM | 1.56
10 µM | 1.63
100 µM | 0.0217
625 fM | 1.583

O=C(c1cc(Cc2n[nH]c(=O)c3ccccc23)ccc1F)N1CCN(C(=O)C2CC2)CC1 [olaparib]
CTG-3D luminescence at 96 h
Conditions | 12.5 pM | 0.00025 µM | 0.005 µM | 0.1 µM | 1 µM | 10 µM | 100 µM | 625 fM
HCI-008, days in culture: 325 | 1.39 | 1.88 | 1.46 | 3.33 | 2.71 | 1.99 | 0.484 | 1.65
HCI-008, days in culture: 340 | 1.45 | 2.1 | 1.84 | 1.46 | 1.67 | – | 0.958 | 1.34
HCI-008, days in culture: 354 | 1.36 | 1 | 1.35 | 1.2 | 1.22 | 1.33 | 0.836 | 1.44
HCI-008, days in culture: 382 | 1.49 | 1.46 | 1.23 | 2 | 0.89 | 0.955 | 0.204 | 1.8
HCI-017.E2, days in culture: 85 | 2.36 | 1.92 | 1.89 | 2.06 | 1.56 | 0.709 | 0.204 | 2.56
HCI-023, days in culture: 223 | 1.7 | 2.3 | 1.79 | 1.65 | 1.36 | 1.31 | 0.879 | 1.75
HCI-023, days in culture: 238 | 1.45 | 1.31 | 1.45 | 1.53 | 1.9 | 1.41 | 0.856 | 1.72
HCI-023, days in culture: 252 | 2.12 | 1.81 | 1.55 | 2 | 1.78 | 1.86 | 1.59 | 2.3
HCI-024, days in culture: 202 | 0.819 | 0.984 | 0.907 | 1.28 | 0.775 | 1.01 | 0.38 | 1.05
HCI-024, days in culture: 231 | 0.787 | 0.983 | 0.972 | 1.27 | 1.78 | 1.27 | 0.836 | 1.4
HCI-024, days in culture: 254 | 1.65 | 1.41 | 1.28 | 1.24 | 1.88 | 1.07 | 0.671 | 1.54
HCI-025, days in culture: 175 | 1.97 | 2.33 | 1.9 | 1.95 | 3.08 | 2.2 | 0.866 | 2.02
HCI-025, days in culture: 189 | 1.46 | 2.11 | 1.91 | 2.25 | 1.86 | 1.28 | 0.825 | 2.78
HCI-025, days in culture: 212 | 3.74 | 3.65 | 1.79 | 1.22 | 1.32 | 1.72 | 0.66 | 2
HCI-025, days in culture: 224 | 1.96 | 1.72 | 1.81 | 1.9 | 2.05 | 1.41 | 0.478 | 1.81

HCI-017.E2
Conditions | CTG-3D luminescence at 96 h
12.5 pM | 2.27
0.00025 µM | 2.61
0.005 µM | 2.34
0.1 µM | 2.76
1 µM | 2.06
10 µM | 1.12
100 µM | 0.259
625 fM | 2.59
